Read-outs that look alike come from different tables or passages of the source.
What was measured:
APAP-induced ALI rats = assay: Biochemical profile and tissue microscopy in APAP-induced ALI rats; assay type: in vivo, Sprague-Dawley rats
CYP3A1/2 = assay: Immunoblot of hepatic microsomes, CYP3A1/2; assay type: in vivo, rat; settings: RVT rats
[1] = In vitro metabolism of tofacitinib; assay type: in vitro ADME, rat; settings: hepatic microsomes
[2] = iv 10 mg/kg
[3] = ref Bannwarth et al., 2013, Dowty et al., 2014; cited from earlier work
[4] = intestinal microsomes, CON, RVT, ALI
in vivo = settings: Sprague-Dawley, rat, plasma, iv, 10 mg/kg, CON rats (control)
[5] = Rat plasma protein binding of tofacitinib; assay type: in vitro ADME; settings: for fraction unbound at 5 µg/mL: Sprague-Dawley, rat, plasma, Plasma protein binding
[6] = ref Popiolek et al., 2021; cited from earlier work
[7] = RVT 50 mg/kg ip, ALI-RVT vs ALI rats, plasma
[8] = oral 20 mg/kg, ALI rats (APAP 400 mg/kg ip)
[9] = oral 20 mg/kg, ALI-RVT rats (RVT 50 mg/kg ip 1.5 h before APAP)
[10] = oral 20 mg/kg, ALI-RVT vs ALI rats
[11] = oral 20 mg/kg, CON rats (control)
[12] = oral 20 mg/kg, RVT rats (RVT 50 mg/kg ip)
[13] = ALI-RVT rats (RVT 50 mg/kg ip 1.5 h before APAP)

Oc1ccc(/C=C/c2cc(O)cc(O)c2)cc1 [RVT, Resveratrol]
Liver and kidney histology (APAP-induced ALI rats; RVT 50 mg/kg ip, ALI-RVT rats): alleviated tissue damage | Decrease in GOT (APAP-induced ALI rats; [7]): 35.1% | Increase in total protein (APAP-induced ALI rats; [7]): 4.50% | Glutamate oxaloacetate transaminase levels (APAP-induced ALI rats; RVT administration in ALI rats): normalized | CYP3A expression following RVT administration (CYP3A1/2): slightly decreased

C[C@@H]1CCN(C(=O)CC#N)C[C@@H]1N(C)c1ncnc2[nH]ccc12 [tofacitinib, Tofacitinib]
F values, comparison across the four groups (CON, RVT, ALI, ALI-RVT rats): similar | Ae0-24 h (drug excreted unchanged in urine for 24 h) [8]: 3.04 ± 1.74 % of dose | GI24 h (drug remaining in the gastrointestinal tract at 24 h) [8]: 0.743 ± 0.917 % of dose | Decrease in CLR (oral 20 mg/kg, ALI vs CON rats): 76.4% | Increase in AUC (oral 20 mg/kg, ALI vs CON rats, 20 mg/kg): 181% | Ae0-24 h (drug excreted unchanged in urine for 24 h) [9]: 6.41 ± 1.86 % of dose | GI24 h (drug remaining in the gastrointestinal tract at 24 h) [9]: 0.467 ± 0.243 % of dose | Decrease in AUC [10]: 41.4% | Increase in CLR [10]: 211% | Ae0-24 h (drug excreted unchanged in urine for 24 h) [11]: 4.72 ± 2.03 % of dose | GI24 h (drug remaining in the gastrointestinal tract at 24 h) [11]: 0.791 ± 1.06 % of dose | Ae0-24 h (drug excreted unchanged in urine for 24 h) [12]: 3.96 ± 2.11 % of dose | GI24 h (drug remaining in the gastrointestinal tract at 24 h) [12]: 0.295 ± 0.0618 % of dose | GI24 h values (oral, both CON and ALI rats): less than 0.791 % of the oral dose | CLint lower than in CON rats ([1]; ALI rats): 69.6% | CLint as % of CON values ([1]; ALI-RVT rats): 93.1% | Km values, comparison across all groups ([1]; CON, RVT, ALI, ALI-RVT): remained consistent | Ae0-24 h (drug excreted unchanged in urine for 24 h) ([2]; ALI rats (APAP 400 mg/kg ip)): 4.26 ± 2.87 % of dose | GI24 h (drug remaining in the gastrointestinal tract at 24 h) ([2]; ALI rats (APAP 400 mg/kg ip)): 0.134 ± 0.0339 % of dose | Increase in AUC ([2]; ALI vs CON rats): 207% | Increase in terminal half-life ([2]; ALI vs CON rats): 113% | Reduction in CL ([2]; ALI vs CON rats): 64.7% | Reduction in CLNR ([2]; ALI vs CON rats): 66.1% | Ae0-24 h (drug excreted unchanged in urine for 24 h) [2, 13]: 9.25 ± 3.62 % of dose | GI24 h (drug remaining in the gastrointestinal tract at 24 h) [2, 13]: 0.115 ± 0.0493 % of dose | Increase in Ae0-24 h ([2]; ALI-RVT vs ALI rats): 117% | Increase in CL ([2]; ALI-RVT vs ALI rats): 142% | Increase in CLNR ([2]; ALI-RVT vs ALI rats): 141% | Increase in CLR ([2]; ALI-RVT vs ALI rats): 398% | Reduction in AUC ([2]; ALI-RVT vs ALI rats): 62.0% | Shorter terminal half-life ([2]; ALI-RVT vs ALI rats): 38.0% | Ae0-24 h (drug excreted unchanged in urine for 24 h) ([2]; CON rats (control)): 5.30 ± 1.91 % of dose | GI24 h (drug remaining in the gastrointestinal tract at 24 h) ([2]; CON rats (control)): 0.108 ± 0.0444 % of dose | Ae0-24 h (drug excreted unchanged in urine for 24 h) ([2]; RVT rats (RVT 50 mg/kg ip)): 7.31 ± 3.12 % of dose | GI24 h (drug remaining in the gastrointestinal tract at 24 h) ([2]; RVT rats (RVT 50 mg/kg ip)): 0.147 ± 0.00805 % of dose | Fraction of the oral dose metabolized by hepatic CYP3A4 and CYP2C19 [3]: Approximately 70% | Vmax, Km, and CLint, comparison across the four groups [4]: no significant differences | AUC (in vivo): 4070 ng·h/mL | recovery at 30 min, 5 µg/mL ([5]; PBS in Nanosep 10 K centrifugal filter unit (no plasma), pH 7.4): 99.7 ± 2.51% | fraction unbound at 5 µg/mL ([5]; plasma of ALI rats): 0.358 | fraction unbound at 5 µg/mL ([5]; plasma of CON rats): 0.363 | fraction unbound at 5 µg/mL ([5]; plasma of RVT rats): 0.349

CC(=O)Nc1ccc(O)cc1 [APAP, Acetaminophen]
Safe dose [6]: up to 2,000 mg per day
